Assay [1] deals with T1, Polyunsaturated fatty acid 5-lipoxygenase (Homo sapiens) (UniProt P09917).
T1 sequence (whole entry): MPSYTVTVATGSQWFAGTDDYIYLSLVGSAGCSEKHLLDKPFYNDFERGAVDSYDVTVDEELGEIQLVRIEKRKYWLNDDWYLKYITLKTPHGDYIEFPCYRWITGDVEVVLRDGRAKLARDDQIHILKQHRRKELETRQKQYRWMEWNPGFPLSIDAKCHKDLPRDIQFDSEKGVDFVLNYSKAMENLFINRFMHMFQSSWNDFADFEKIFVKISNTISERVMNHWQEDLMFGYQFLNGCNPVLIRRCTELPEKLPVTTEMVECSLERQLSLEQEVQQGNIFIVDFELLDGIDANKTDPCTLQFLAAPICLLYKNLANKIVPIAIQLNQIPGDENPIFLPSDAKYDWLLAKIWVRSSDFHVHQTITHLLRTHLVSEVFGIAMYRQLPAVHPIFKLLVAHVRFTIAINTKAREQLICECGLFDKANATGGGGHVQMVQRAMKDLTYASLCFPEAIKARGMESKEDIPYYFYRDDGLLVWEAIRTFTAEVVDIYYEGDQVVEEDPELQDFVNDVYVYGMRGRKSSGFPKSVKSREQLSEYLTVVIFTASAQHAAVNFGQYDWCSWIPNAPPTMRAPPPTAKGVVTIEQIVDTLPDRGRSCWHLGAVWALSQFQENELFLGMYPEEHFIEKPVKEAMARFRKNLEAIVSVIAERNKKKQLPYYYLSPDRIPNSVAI
In words: Inhibition of human recombinant 5-lipoxygenase at 1 mM after 10 mins by fluorescence assay.

Assay [2] deals with T2, Tyrosinase (Agaricus bisporus) (UniProt O42713).
T2 sequence (whole entry): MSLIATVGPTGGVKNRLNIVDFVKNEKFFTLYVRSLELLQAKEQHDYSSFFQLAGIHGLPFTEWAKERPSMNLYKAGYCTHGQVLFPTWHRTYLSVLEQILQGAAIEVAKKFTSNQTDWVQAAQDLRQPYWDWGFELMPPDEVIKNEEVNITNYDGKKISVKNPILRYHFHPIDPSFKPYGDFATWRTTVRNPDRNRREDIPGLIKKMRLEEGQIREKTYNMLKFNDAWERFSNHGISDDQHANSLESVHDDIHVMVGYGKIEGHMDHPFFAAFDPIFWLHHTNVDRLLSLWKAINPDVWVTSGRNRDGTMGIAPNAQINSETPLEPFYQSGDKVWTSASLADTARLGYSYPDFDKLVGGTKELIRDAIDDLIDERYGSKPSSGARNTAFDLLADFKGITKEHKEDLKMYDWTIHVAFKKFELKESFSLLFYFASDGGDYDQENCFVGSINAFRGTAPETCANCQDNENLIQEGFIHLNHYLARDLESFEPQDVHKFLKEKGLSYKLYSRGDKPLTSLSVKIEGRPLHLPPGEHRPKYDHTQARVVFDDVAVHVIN
The settings on record: at 1 mM.

Assay [3] deals with T3, Lethal factor (Bacillus anthracis) (UniProt P15917).
T3 sequence (whole entry): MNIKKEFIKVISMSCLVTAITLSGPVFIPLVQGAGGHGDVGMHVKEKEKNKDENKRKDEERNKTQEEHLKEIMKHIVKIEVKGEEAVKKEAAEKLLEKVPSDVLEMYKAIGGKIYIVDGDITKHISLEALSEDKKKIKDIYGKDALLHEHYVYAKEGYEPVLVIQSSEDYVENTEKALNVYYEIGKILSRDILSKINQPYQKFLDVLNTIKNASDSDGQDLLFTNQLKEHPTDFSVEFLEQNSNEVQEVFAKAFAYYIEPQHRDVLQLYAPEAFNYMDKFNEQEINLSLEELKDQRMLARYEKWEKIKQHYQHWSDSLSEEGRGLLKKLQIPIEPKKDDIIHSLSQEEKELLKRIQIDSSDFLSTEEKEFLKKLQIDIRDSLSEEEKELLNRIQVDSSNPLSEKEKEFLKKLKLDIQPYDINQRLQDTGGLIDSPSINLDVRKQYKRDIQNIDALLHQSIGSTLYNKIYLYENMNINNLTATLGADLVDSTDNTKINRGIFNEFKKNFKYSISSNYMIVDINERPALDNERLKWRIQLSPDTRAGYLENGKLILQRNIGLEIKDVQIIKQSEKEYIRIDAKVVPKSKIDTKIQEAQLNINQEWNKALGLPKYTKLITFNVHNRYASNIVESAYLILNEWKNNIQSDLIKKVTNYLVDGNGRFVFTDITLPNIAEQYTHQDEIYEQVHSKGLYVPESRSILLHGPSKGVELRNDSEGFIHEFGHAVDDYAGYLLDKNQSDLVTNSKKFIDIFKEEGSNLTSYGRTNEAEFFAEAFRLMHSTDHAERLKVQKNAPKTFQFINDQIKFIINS
The settings on record: at 1 mM.

The target of assay [4] is T4, Interstitial collagenase (Homo sapiens) (UniProt P03956).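 Note: recombinant human enzyme, with inhibition measured after 30 min.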
T4 sequence (whole entry): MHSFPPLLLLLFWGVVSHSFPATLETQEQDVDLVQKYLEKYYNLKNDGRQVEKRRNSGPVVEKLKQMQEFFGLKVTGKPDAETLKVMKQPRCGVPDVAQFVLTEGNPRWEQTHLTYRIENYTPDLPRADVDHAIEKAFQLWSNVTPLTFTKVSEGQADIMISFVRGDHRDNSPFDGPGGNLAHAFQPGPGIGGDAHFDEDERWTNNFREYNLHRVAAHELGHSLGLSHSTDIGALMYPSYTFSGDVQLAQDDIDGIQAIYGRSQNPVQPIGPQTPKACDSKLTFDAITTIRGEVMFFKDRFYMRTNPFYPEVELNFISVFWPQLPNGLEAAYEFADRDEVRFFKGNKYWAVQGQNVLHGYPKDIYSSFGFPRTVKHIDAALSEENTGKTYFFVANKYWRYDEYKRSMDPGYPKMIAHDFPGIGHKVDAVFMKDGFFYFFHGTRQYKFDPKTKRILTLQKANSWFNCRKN
The following applies: at 1 mM.

Assay [5] has as its target 72 kDa type IV collagenase (Homo sapiens, UniProt P08253). The settings on record: at 1 mM.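 Note: recombinant human enzyme, inhibition read after a 30 min incubation.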
Assay [6] concerns the target Stromelysin-1 (Homo sapiens) (UniProt P08254). The settings on record: at 1 mM.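 Note: recombinant enzyme, inhibition read after a 30 min incubation.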
The target of assay [7] is Neutrophil collagenase (Homo sapiens) (UniProt P22894). The following applies: at 1 mM.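 Note: recombinant human MMP8 enzyme, percent inhibition read after 30 min.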
Assay [8] addresses Matrix metalloproteinase-9 (Homo sapiens) (UniProt P14780). The following applies: at 1 mM.

Molecules are shown by their SMILES.

Sequence of 72 kDa type IV collagenase (P08253 110-660 limits assumed): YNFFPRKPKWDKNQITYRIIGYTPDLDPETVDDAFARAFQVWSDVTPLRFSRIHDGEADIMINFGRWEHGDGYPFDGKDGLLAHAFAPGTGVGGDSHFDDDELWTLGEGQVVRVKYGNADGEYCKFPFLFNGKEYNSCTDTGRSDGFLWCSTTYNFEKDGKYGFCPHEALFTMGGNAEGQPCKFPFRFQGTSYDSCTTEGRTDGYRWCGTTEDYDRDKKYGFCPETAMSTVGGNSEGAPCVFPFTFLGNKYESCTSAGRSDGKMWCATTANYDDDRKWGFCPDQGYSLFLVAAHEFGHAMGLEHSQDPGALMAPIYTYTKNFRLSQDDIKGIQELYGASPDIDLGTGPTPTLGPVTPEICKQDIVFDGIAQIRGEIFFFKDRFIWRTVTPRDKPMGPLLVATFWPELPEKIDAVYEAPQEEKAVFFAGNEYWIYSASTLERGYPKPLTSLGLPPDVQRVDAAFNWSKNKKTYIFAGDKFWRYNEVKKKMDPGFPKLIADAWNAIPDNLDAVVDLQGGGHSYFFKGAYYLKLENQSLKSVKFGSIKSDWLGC
Sequence of Matrix metalloproteinase-9 (Homo sapiens) (P14780 whole entry): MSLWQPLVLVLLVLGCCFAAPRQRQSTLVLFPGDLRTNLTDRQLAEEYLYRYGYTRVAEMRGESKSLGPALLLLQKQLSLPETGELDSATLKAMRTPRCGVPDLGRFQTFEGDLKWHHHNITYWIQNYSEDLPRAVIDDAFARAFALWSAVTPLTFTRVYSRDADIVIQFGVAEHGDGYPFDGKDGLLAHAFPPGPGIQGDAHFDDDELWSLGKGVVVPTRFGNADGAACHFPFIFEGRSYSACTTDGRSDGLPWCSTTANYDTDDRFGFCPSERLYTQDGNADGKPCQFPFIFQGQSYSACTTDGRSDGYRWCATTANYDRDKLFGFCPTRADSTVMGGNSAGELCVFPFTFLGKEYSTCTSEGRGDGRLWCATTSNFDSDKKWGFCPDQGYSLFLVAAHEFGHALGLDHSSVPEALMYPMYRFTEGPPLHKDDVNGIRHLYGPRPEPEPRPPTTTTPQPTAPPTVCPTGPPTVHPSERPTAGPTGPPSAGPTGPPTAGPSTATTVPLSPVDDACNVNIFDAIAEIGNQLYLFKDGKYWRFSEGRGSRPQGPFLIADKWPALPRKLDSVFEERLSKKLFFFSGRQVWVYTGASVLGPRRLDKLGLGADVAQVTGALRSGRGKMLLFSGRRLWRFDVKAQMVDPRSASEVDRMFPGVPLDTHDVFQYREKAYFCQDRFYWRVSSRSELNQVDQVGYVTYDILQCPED
Sequence of Neutrophil collagenase (Homo sapiens) (P22894 101-467 limits assumed): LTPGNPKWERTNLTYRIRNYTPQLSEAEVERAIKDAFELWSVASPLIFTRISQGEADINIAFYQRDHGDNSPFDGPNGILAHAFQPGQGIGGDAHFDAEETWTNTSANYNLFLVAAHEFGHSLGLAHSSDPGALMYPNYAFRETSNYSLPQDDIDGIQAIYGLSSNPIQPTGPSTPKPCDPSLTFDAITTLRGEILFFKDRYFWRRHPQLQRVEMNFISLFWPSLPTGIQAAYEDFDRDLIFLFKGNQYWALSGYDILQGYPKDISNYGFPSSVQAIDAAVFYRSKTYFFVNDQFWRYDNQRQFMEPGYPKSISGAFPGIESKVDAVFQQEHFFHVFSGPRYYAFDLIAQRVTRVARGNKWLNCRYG
Sequence of Stromelysin-1 (Homo sapiens) (P08254 100-477 limits assumed): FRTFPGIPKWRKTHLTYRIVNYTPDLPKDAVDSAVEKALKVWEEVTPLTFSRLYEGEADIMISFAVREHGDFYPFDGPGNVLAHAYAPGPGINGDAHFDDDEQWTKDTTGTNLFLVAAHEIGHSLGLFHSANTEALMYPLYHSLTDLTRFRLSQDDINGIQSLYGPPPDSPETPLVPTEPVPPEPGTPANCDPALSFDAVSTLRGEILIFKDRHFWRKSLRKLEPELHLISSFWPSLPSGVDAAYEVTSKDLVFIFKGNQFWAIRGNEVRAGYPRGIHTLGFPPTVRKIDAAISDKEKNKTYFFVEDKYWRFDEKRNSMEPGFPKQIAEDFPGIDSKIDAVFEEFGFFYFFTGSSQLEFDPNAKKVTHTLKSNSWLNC

On to `O=c1ccc2ccccc2[nH]1`, for which the inhibition (in general, the drop in the measured response relative to a control, in per cent) was determined as 22% in assay [1]; 5% in assay [2]; 36% in assay [3]; 20% in assay [4]; 5% in assay [5]; 3% in assay [6]. Also, the results for the inhibition in assay [7] and in assay [8] were 33% and 5%, respectively.
With `[O-][n+]1ccccc1S`, the inhibition worked out at 70% in assay [1]; 81% in assay [2]; 23% in assay [3]; 78% in assay [4]; 91% in assay [5]; 100% in assay [6]. Besides, the inhibition in assay [7] came out at 90%; in assay [8], 77%.
With `Oc1ccccc1-c1nc2ccccc2s1`, the inhibition in assay [2] amounted to 34%; in assay [3] it was 1%; in assay [4], 6%; in assay [5], 7%; in assay [6] it was 4%; in assay [7] it was 40%. In assay [8], the inhibition came out at 3%.
As for `CS(=O)(=O)Nc1cccc2cccnc12`, the inhibition in assay [1] is 13%; in assay [4] it was 57%; in assay [5], 84%; in assay [6] it was 64%; in assay [7] it was 75%; in assay [8] it was 59%.
With `CC(C)c1cccc(C(=O)O)c1O`, the inhibition was -3% in assay [1]; 91% in assay [2]; -3% in assay [3]; 13% in assay [4]; -2% in assay [5]; 5% in assay [6]. Besides, the inhibition turned out to be 3% in assay [7] and 9% in assay [8].
`Oc1ccc2ccccc2c1O`: the inhibition in assay [1] came to 69%; in assay [3], 85%; in assay [4], 71%; in assay [5] it was 71%; in assay [6] it was 89%; in assay [7] it was 100%. Moreover, the inhibition in assay [8] amounted to 86%.
As to `O=c1cc[nH]c(=S)[nH]1`, the inhibition in assay [2] was 36%; in assay [3] it was 33%; in assay [4] it was 52%; in assay [5], 47%; in assay [6] it was 47%; in assay [7], 37%. Further, the inhibition in assay [8] was found to be 44%.
Regarding `Cc1ccc(C(=O)O)c(C(=O)O)n1`, the inhibition in assay [1] is 22%; in assay [2], 96%; in assay [3] it was 43%; in assay [4], 8%; in assay [6] it was 28%; in assay [7] it was 11%. The inhibition in assay [8] is -10%.
As for `O=C(O)c1ccc(O)c(O)c1`, the inhibition was 86% in assay [1]; 50% in assay [2]; 21% in assay [3]; 14% in assay [4]; -8% in assay [5]; 0% in assay [6]. Further, the inhibition in assay [7] was 13%; in assay [8], -1%.
Take `O=C1C=C(O)C(=O)c2ccccc21`: the inhibition stood at 100% in assay [1]; 69% in assay [2]; 100% in assay [3]; 86% in assay [4]; 84% in assay [5]; 84% in assay [6]. Besides, the inhibition in assay [7] stood at 86%; in assay [8], 85%.
With `Oc1ccc(Cl)c2cccnc12`, the inhibition in assay [2] stood at 0%; in assay [3], 44%; in assay [4], 39%; in assay [5], 60%; in assay [6], 45%; in assay [7], 73%. In addition, the inhibition in assay [8] is 1%.
Consider `Oc1nccc(S)n1`, for which the inhibition in assay [1] was 46%; in assay [2], 44%; in assay [3], 22%; in assay [4] it was 90%; in assay [6], 95%; in assay [7], 83%. For the same compound, in assay [8], the inhibition was determined as 90%.
As for `Nc1cccc2cccnc12`, the inhibition in assay [3] came to 30%; in assay [4] it was 63%; in assay [5], 51%; in assay [6], 56%; in assay [7] it was 61%; in assay [8], 57%.
Take `CCn1ccc(=S)c(O)c1C`: the inhibition stood at 96% in assay [1]; 100% in assay [2]; 60% in assay [3]; 98% in assay [4]; 100% in assay [5]; 99% in assay [6]. Further, the figures for the inhibition in assay [7] and in assay [8] were 93% and 100%, respectively.
For `Oc1ccccc1-c1nc2ccccc2o1`, the inhibition stood at 3% in assay [2]; 0% in assay [3]; 11% in assay [4]; 1% in assay [5]; 4% in assay [6]; 28% in assay [7].
In the case of `CCc1c(O)c(=S)ccn1CC`, the inhibition in assay [1] worked out at 97%; in assay [2] it was 100%; in assay [3] it was 55%; in assay [4], 81%; in assay [5], 100%; in assay [6], 99%. In addition, the inhibition amounted to 94% in assay [7] and 100% in assay [8].
For the compound `Cc1cc(=O)[nH]c(=S)[nH]1`, the inhibition in assay [1] came to 70%; in assay [2] it was 31%; in assay [3] it was 29%; in assay [4], 40%; in assay [5], 26%; in assay [6], 37%. Moreover, the figures for the inhibition in assay [7] and in assay [8] were 31% and 27%, respectively.
Turning to `COc1ccccc1S`, the inhibition was 19% in assay [3]; 11% in assay [4]; 3% in assay [5]; -8% in assay [6]; 26% in assay [7]; 17% in assay [8].
